Among the data in PubChem BioAssay (NCI) are GI50 and TGI values, retold here.

Among the test systems are T-47D breast; NCI/ADR-RES ovarian; SK-OV-3 ovarian; HS 578T breast; UO-31 renal; SW-620 colon; SF-268 CNS; SR leukemia; NCI-H23 lung; HCC-2998 colon.
Common to all, as to experiment: NCI tumour cell line growth inhibition, 48 h

Each structure is given as a SMILES string. “And” between values parts separate entries of the source, which are not always exact repeats. Identical values can stand only once.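 Exposure lasted 48 hours, with cells grown in 96-well plates and compounds tested at five concentrations. At the GI50, growth is halved. TGI denotes the concentration required for complete inhibition of growth.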

In the case of `Cc1ncc(C(=O)Nc2ccc(CN3CCN(C)CC3)c(C(F)(F)F)c2)cc1C#Cc1c(N)ncc2ccc(C#N)cc12`, the GI50 in the experiment with T-47D breast was over 14500 nM; in the experiment on NCI/ADR-RES ovarian, 5060 nM; in the experiment on SK-OV-3 ovarian it was 1700 nM; in the experiment with HS 578T breast, 572 nM; with UO-31 renal, 1260 nM; with SW-620 colon, 661 nM. Further, the GI50 in the experiment with SF-268 CNS is 1400 nM; in the experiment on SR leukemia it was 1420 nM; in the experiment on NCI-H23 lung it was 936 nM; with HCC-2998 colon, 4960 nM. Moreover, the TGI was over 50 µM in the experiment on T-47D breast; 16.8 µM in the experiment on NCI/ADR-RES ovarian; 10.9 µM in the experiment with SK-OV-3 ovarian; 4.93 µM in the experiment on HS 578T breast; 4.99 µM with UO-31 renal; 10.3 µM with SW-620 colon. In addition, the TGI is 9.7 µM in the experiment on SF-268 CNS, 12.2 µM with SR leukemia, 8.58 µM in the experiment with NCI-H23 lung and over 40.9 µM with HCC-2998 colon.
For `Cc1cc(Cl)n2c(nc3ccccc32)c1C#N`, the GI50 with T-47D breast is 718 nM; in the experiment on NCI/ADR-RES ovarian, 847 nM; in the experiment on SK-OV-3 ovarian, 3810 nM; with HS 578T breast it was 1020 nM; with UO-31 renal, 333 nM; with SW-620 colon, 55 nM. Besides, the GI50 with SF-268 CNS was 460 nM; in the experiment with SR leukemia it was 348 nM; in the experiment with NCI-H23 lung it was 422 nM; with HCC-2998 colon, 727 nM. In addition, the TGI amounted to 2.3 µM with T-47D breast; 8.74 µM in the experiment with NCI/ADR-RES ovarian; 15.6 µM in the experiment with SK-OV-3 ovarian; 23.4 µM in the experiment on HS 578T breast; 1.68 µM in the experiment with UO-31 renal; 1.79 µM in the experiment with SW-620 colon. Moreover, the TGI in the experiment on SF-268 CNS came out at 11.4 µM; with SR leukemia it was 24.2 µM; with NCI-H23 lung it was 2.55 µM; with HCC-2998 colon, 2.31 µM.
`COc1ccc(C2SC(N)=Nc3c2c(C)nn3C(=O)c2ccncc2)cc1` (stereo unspecified): the TGI with T-47D breast, in the experiment on NCI/ADR-RES ovarian, with SK-OV-3 ovarian, with HS 578T breast, in the experiment with UO-31 renal and with SW-620 colon was over 100 µM throughout. The figures for the TGI with SF-268 CNS, in the experiment on SR leukemia and with NCI-H23 lung were over 100 µM, 73 µM and over 100 µM, respectively.
For the molecule `CN(NC(=O)/C(=C/c1ccc(O)cc1)NC(=O)c1ccccc1)c1ccnc2cc(Cl)ccc12`, the TGI worked out at 45.6 µM in the experiment with T-47D breast; 38 µM in the experiment on NCI/ADR-RES ovarian; 36.6 µM in the experiment with SK-OV-3 ovarian; 48.2 µM in the experiment with HS 578T breast; 18.6 µM in the experiment on UO-31 renal; 47.2 µM with SW-620 colon. The TGI with SF-268 CNS worked out at 36 µM; in the experiment on SR leukemia it was 10.4 µM; in the experiment with HCC-2998 colon it was 33.3 µM.
On to `N/C(=N\N=C\c1ccc2c(c1)OCO2)NO`, for which the TGI with T-47D breast is over 100 µM; in the experiment on NCI/ADR-RES ovarian, 23.1 µM; in the experiment with SK-OV-3 ovarian it was over 100 µM; with HS 578T breast it was over 100 µM; in the experiment with SW-620 colon it was over 100 µM; with SF-268 CNS it was 75.4 µM. The values for the TGI with SR leukemia, in the experiment on NCI-H23 lung and in the experiment on HCC-2998 colon were 31.7 µM, 98.8 µM and over 100 µM, respectively.
On to `Cc1c2c(n3c(nc4ccccc43)c1C#N)SCC2`, for which the TGI with T-47D breast, in the experiment with NCI/ADR-RES ovarian, in the experiment with SK-OV-3 ovarian, in the experiment with HS 578T breast, in the experiment with UO-31 renal and with SW-620 colon was over 10 µM throughout. Also, the TGI in the experiment on SF-268 CNS, in the experiment on SR leukemia and in the experiment on NCI-H23 lung was over 10 µM throughout.
For `Cc1cc(O)c2c(c1)C[C@@H](O)C1=C2C(=O)c2c(O)ccc(OC3CC(O)C(OC4CC(OC5CCC(OC6CC(O)C(OC7CC(OC8CCC(O)C(C)O8)C(O)C(C)O7)C(C)O6)C(C)O5)C(O)C(C)O4)C(C)O3)c2C1=O` (stereo partly specified), the GI50 was 626 nM in the experiment with T-47D breast; 3010 nM and 1800 nM in the experiment on NCI/ADR-RES ovarian; 1590 nM in the experiment with HS 578T breast; 1390 nM and 1300 nM in the experiment with UO-31 renal; 362 nM and 216 nM in the experiment on SW-620 colon; 295 nM and 467 nM with SF-268 CNS. Also, the GI50 with SR leukemia is 33 nM and 47.5 nM; with NCI-H23 lung it was 343 nM and 800 nM; in the experiment with HCC-2998 colon, 1760 nM and 1450 nM. For the same molecule, in the experiment with T-47D breast, the TGI was 0.352 µM and 2.54 µM.
For the molecule `COc1ccc(CCNc2nc3ccccc3c3[nH]c4ccccc4c23)cc1OC`, the GI50 is 15300 nM with T-47D breast; 4730 nM in the experiment with NCI/ADR-RES ovarian; 19900 nM in the experiment on SK-OV-3 ovarian; 2540 nM with HS 578T breast; 2340 nM in the experiment on SW-620 colon; 4770 nM with SF-268 CNS. Besides, the GI50 in the experiment with SR leukemia was 2320 nM; in the experiment on NCI-H23 lung it was 10400 nM; in the experiment on HCC-2998 colon, 1600 nM. The TGI in the experiment on T-47D breast was determined as 34.2 µM; with NCI/ADR-RES ovarian, 26 µM; in the experiment on SK-OV-3 ovarian it was 34.6 µM; in the experiment on HS 578T breast, 6.17 µM; in the experiment with SW-620 colon, 6.07 µM; in the experiment on SF-268 CNS, 20.6 µM. The TGI in the experiment on SR leukemia was found to be 7.93 µM; with NCI-H23 lung, 24.6 µM; in the experiment with HCC-2998 colon, 3.1 µM.
In the case of `Cn1cc(-c2ccc3cc(-c4ccc(CC(=O)Nc5cc(C(C)(C)C)nn5C)cc4)cnc3c2)cn1`, the GI50 in the experiment with T-47D breast was 209 nM; in the experiment with NCI/ADR-RES ovarian, 355 nM; in the experiment with SK-OV-3 ovarian, 109 nM; in the experiment on HS 578T breast, 187 nM; with SW-620 colon it was 324 nM; in the experiment on SF-268 CNS it was 294 nM. The GI50 in the experiment on SR leukemia was 256 nM; with NCI-H23 lung it was 407 nM; in the experiment with HCC-2998 colon, 443 nM. The TGI is 4.81 µM in the experiment on T-47D breast; over 100 µM in the experiment with NCI/ADR-RES ovarian; over 100 µM in the experiment on SK-OV-3 ovarian; over 100 µM in the experiment on HS 578T breast; over 100 µM in the experiment with SW-620 colon; over 100 µM with SF-268 CNS. The TGI in the experiment with SR leukemia, in the experiment on NCI-H23 lung and in the experiment on HCC-2998 colon was over 100 µM each time.
On to `CCCCC1(N=[N+]=[N-])C(=O)c2cccc3c2N(CCC3)C1=O` (stereo unspecified), for which the TGI in the experiment on T-47D breast, in the experiment on NCI/ADR-RES ovarian, in the experiment with SK-OV-3 ovarian, in the experiment with HS 578T breast, with SW-620 colon and in the experiment on SF-268 CNS was over 100 µM in each case. Moreover, the TGI with SR leukemia, in the experiment on NCI-H23 lung and in the experiment on HCC-2998 colon was over 100 µM throughout.
